Results reported in patent US8633183B2 (priority 2010, dated 2014).

Biological target: PI3Kalpha (Homo sapiens (Human), UniProt P42336)
Settings: read-out: IC50 PI3K
Experimental: Plot the concentration of each compound versus the emission ratio. […] Determination of IC50 values can be obtained by curve fitting (sigmoidal dose response, variable slope) using Prism software from GraphPad).
Method Type: Filter-Binding-Assay
Compounds are serially diluted in assay buffer+6% DMSO and 10 μl of each dilution is added per well of a 96-well plate (compounds are tested in duplicates) and mixed with 30 μl of the lipid vesicles containing PDGFR-Peptide (0.5 μM final) and PI3K alpha (25 ng/well final). The mixture is then incubated for 20 minutes at room temperature. Subsequently, 20 μl of assay buffer containing 3 μM cold ATP and 0.5 μCi/20 μl 33P-ATP are added. The plates are then incubated at room temperature for 120 minutes (shaking with 300 rpm). The reaction mix is transferred onto filter plates using “filtermate harvester” from Packard: filter plates are rinsed with PBS, then the reaction mix is filtered onto the filter plate, washed 5 times with PBS and are allowed to dry for 30-60 minutes at 50° C.
As positive control serve wells containing vehicle controls (1% DMSO in assay buffer), showing non-inhibited kinase activity (high values). Wells containing assay buffer instead of enzyme can serve as control for background activity (low values).
Calculate IC50 values using the Smiley program (based on GrapPad Prism)

PI3Kalpha, sequence (P42336 whole entry, looked up): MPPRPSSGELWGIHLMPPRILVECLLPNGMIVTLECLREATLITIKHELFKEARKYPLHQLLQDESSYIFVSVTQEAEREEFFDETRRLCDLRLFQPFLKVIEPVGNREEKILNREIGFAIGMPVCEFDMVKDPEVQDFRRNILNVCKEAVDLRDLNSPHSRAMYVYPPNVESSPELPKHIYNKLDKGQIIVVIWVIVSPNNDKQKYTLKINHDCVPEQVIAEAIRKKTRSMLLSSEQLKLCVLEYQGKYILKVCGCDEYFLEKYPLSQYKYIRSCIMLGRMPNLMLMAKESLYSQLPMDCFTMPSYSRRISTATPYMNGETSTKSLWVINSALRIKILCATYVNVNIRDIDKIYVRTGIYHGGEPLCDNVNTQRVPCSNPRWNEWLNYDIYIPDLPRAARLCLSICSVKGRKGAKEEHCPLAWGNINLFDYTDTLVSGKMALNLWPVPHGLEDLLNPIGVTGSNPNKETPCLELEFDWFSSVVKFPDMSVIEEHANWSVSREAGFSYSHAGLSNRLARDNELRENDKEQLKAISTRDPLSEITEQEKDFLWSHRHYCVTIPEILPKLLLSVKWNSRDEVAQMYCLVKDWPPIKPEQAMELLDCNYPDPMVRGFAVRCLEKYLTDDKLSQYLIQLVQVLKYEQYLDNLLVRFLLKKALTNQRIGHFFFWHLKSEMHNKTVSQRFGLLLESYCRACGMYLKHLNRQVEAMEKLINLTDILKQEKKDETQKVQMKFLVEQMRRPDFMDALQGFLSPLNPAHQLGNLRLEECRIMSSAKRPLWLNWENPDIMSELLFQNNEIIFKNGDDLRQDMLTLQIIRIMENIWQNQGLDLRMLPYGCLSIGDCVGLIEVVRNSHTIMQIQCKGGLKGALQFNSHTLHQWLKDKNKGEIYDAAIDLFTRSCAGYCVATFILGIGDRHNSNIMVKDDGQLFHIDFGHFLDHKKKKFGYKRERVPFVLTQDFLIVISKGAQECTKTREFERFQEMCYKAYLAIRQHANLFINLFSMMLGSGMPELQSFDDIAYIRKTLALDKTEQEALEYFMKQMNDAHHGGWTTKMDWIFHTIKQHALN

SMILES	IC50 [nM]
CCc1ncnc(-c2ccc(C(=O)N3CCN(CCN(C)C)CC3)c(F)c2)c1C#Cc1ccc(N)nc1C [Example D-26]	552
CCc1ncnc(-c2ccc(C(=O)N3CCN(CC4CCCO4)CC3)c(F)c2)c1C#Cc1ccc(N)nc1C [Example D-16]	192
CCCCN1CCN(C(=O)c2ccc(-c3ncnc(CC)c3C#Cc3ccc(N)nc3)cc2Cl)CC1 [Example D-29]	162
CCc1ncnc(-c2ccc(C(=O)N3CCN(C4CCOCC4)CC3)c(Cl)c2)c1C#Cc1ccc(N)nc1 [Example D-31]	97
CCc1ncnc(-c2ccc(C(=O)N3CCC(N(C)C)CC3)c(OC)c2)c1C#Cc1ccc(N)nc1 [Example E-59]	294
CCc1ncnc(-c2cc(F)c(C(=O)NCCN3CCOCC3)c(F)c2)c1C#Cc1ccc(N)nc1 [Example E-13]	154
CCc1ncnc(-c2cc(F)c(C(=O)N3CCN(C)CC3)c(F)c2)c1C#Cc1ccc(NC)nc1 [Example E-210]	388
CCN(CC)C(=O)c1cccc(-c2ncnc(C)c2C#Cc2ccc(N)nc2)c1 [Example C-36]	308
CCc1ncnc(-c2ccc(C(=O)N(C)CCO)c(Cl)c2)c1C#Cc1ccc(N)nc1 [Example D-34]	36
CCc1ncnc(-c2cc(Cl)c(C(=O)N3CCN(C)CC3)c(Cl)c2)c1C#Cc1ccc(N)nc1 [Example E-197]	123
CCc1ncnc(-c2cc(F)c(C(=O)N3CCC4(CC3)COC4)c(Cl)c2)c1C#Cc1ccc(N)nc1 [Example E-158]	122
CCc1ncnc(-c2ccc(C(=O)N3CCN(C4CCS(=O)(=O)C4)CC3)c(F)c2)c1C#Cc1ccc(N)nc1 [Example D-86]	95
CCc1ncnc(-c2cc(Cl)c(C(=O)N3CC4(CN(C)C4)C3)c(Cl)c2)c1C#Cc1ccc(N)nc1 [Example E-333]	599
CCc1ncnc(-c2cc(F)c(C(=O)N3CCC4(CC3)CNC4)c(F)c2)c1C#Cc1ccc(N)nc1 [Example E-161]	925
CCc1ncnc(-c2cc(F)c(C(=O)N3CCC(CN)CC3)c(Cl)c2)c1C#Cc1ccc(N)nc1 [Example E-285]	647
Cc1ncnc(-c2ccc(C(=O)N3CCN4CCCCC4C3)cc2)c1C#Cc1ccc(N)nc1 [Example D-191]	81
CCc1ncnc(-c2cc(F)c(C(=O)N3CCN(C(C)CO)CC3)c(F)c2)c1C#Cc1ccc(N)nc1 (stereo not shown) [Example E-299]	160
CCc1ncnc(-c2ccc(C(=O)N3CC[C@@H](O)C3)c(F)c2)c1C#Cc1ccc(N)nc1 [Example D-204]	69
CCc1ncnc(-c2ccc(C(=O)N3CCC(N4CCOCC4)CC3)c(C)c2)c1C#Cc1ccc(N)nc1 [Example E-91]	179
CCc1ncnc(-c2ccc(C(=O)N3CCCO3)c(Cl)c2)c1C#Cc1ccc(N)nc1 [Example E-74]	53.9
CCc1ncnc(-c2cc(F)c(C(=O)N3CCN(CC(C)O)CC3)c(Cl)c2)c1C#Cc1ccc(N)nc1 (stereo not shown) [Example E-309]	239
CCc1ncnc(-c2ccc(C(=O)N3CCC(N4CCOCC4)CC3)c(Cl)c2)c1C#Cc1ccc(N)nc1 [Example E-71]	99.9
CCc1ncnc(-c2ccc(C(=O)N3CCN4CCCC[C@@H]4C3)c(F)c2)c1C#Cc1ccc(N)nc1 [Example E-145]	358
CCc1ncnc(-c2ccc(C(=O)N3CCC4(CC3)OCCCO4)c(Cl)c2)c1C#Cc1ccc(N)nc1 [Example E-19]	90.5
CCc1ncnc(-c2cc(F)c(C(=O)N3CCn4c(C)cnc4C3)c(Cl)c2)c1C#Cc1ccc(N)nc1 [Example E-157]	37.5

SMILES	IC50 [nM]
CCc1ncnc(-c2ccc(C(=O)N3CCC4(CC3)CN(C)C4)c(Cl)c2)c1C#Cc1ccc(N)nc1 [Example E-338]	634
CCc1ncnc(-c2ccc(C(=O)N3CCN(C(C)C)CC3)c(OC)c2)c1C#Cc1ccc(N)nc1 [Example D-50]	211
Cc1ncnc(-c2ccc(F)c(C(=O)N(C)C)c2)c1C#Cc1ccc(N)nc1 [Example C-9]	254
CCc1ncnc(-c2ccc(C(=O)N(C)CCCOC)c(F)c2)c1C#Cc1ccc(N)nc1 [Example D-1]	78
CCc1ncnc(-c2ccc(C(=O)N3CCNCC3)c(Cl)c2)c1C#Cc1ccc(N)nc1 [Example D-152]	164
CCc1ncnc(-c2ccc(C(=O)N3CCCCO3)cc2)c1C#Cc1ccc(N)nc1 [Example D-223]	77
CCc1ncnc(-c2ccc(C(=O)N3CCC(O)(CC)CC3)c(F)c2)c1C#Cc1ccc(N)nc1 [Example D-125]	269
CCc1ncnc(-c2ccc(C(=O)N3CC(C)NC(C)C3)c(F)c2)c1C#Cc1ccc(N)nc1 [Example D-132]	184
CCc1ncnc(-c2ccc(C(=O)N3CCN(CC(C)(C)O)CC3)c(F)c2)c1C#Cc1ccc(N)nc1 [Example E-349]	175
CCc1ncnc(-c2ccc(C(=O)N(C)CC3CCCN(C)C3)c(F)c2)c1C#Cc1ccc(N)nc1 [Example D-73]	324
CCc1ncnc(-c2ccc(C(=O)N3CCN(C4COC4)CC3)c(Cl)c2)c1C#Cc1ccc(N)nc1 [Example E-273]	119
CCc1ncnc(-c2cc(Cl)c(C(=O)N3CCC4(CC3)CN(C)C4)c(Cl)c2)c1C#Cc1ccc(N)nc1 [Example E-335]	2210
CCc1ncnc(-c2ccc(F)c(C(=O)N3CCOCC3)c2)c1C#Cc1ccc(N)nc1 [Example C-46]	226
Cc1ncnc(-c2ccc(C(=O)N3CCN(C4CCS(=O)(=O)C4)CC3)cc2)c1C#Cc1ccc(N)nc1 [Example D-192]	134
CCc1ncnc(-c2ccc(C(=O)N3CCN(C(C)C)CC3)c(OC(F)(F)F)c2)c1C#Cc1ccc(N)nc1 [Example E-222]	530
CCc1ncnc(-c2ccc(C(=O)N3CCC(C4CCN(C)CC4)CC3)c(C)c2)c1C#Cc1ccc(N)nc1 [Example E-119]	281
CCc1ncnc(-c2ccc(C(=O)N3CCCOCC3)c(Cl)c2)c1C#Cc1ccc(N)nc1 [Example E-39]	65.3
CCc1ncnc(-c2ccc(C(=O)N3CCN(Cc4ccccc4)CC3)c(F)c2)c1C#Cc1ccc(N)nc1 [Example D-97]	476
CCc1ncnc(-c2ccc(C(=O)N3CCN(C4CCCC4)CC3)c(F)c2)c1C#Cc1ccc(N)nc1 [Example D-96]	151
CCc1ncnc(-c2ccc(C(=O)N3CCC4(CC3)CNC4)c(F)c2)c1C#Cc1ccc(N)nc1 [Example E-268]	242
CCc1ncnc(-c2cc(F)c(C(=O)N3CCNCC3)c(F)c2)c1C#Cc1ccc(N)nc1 [Example E-14]	353
CCc1ncnc(-c2cc(F)c(C(=O)N3CCN(C)C[C@H]3C)c(F)c2)c1C#Cc1ccc(N)nc1 [Example E-340]	364
CCc1ncnc(-c2cc(F)c(C(=O)NCC3CCNCC3)c(F)c2)c1C#Cc1ccc(N)nc1 [Example E-175]	163
CCc1ncnc(-c2cc(F)c(C(=O)N3CCN(C4CCCC4O)CC3)c(F)c2)c1C#Cc1ccc(N)nc1 (stereo not shown) [Example E-301]	106
CCc1ncnc(-c2ccc(C(=O)N3CCN(C(C)=O)CC3)c(C)c2)c1C#Cc1ccc(N)nc1 [Example E-108]	71.5

SMILES	IC50 [nM]
CCc1ncnc(-c2ccc(C(=O)N3CC[C@@H](O)C3)c(Cl)c2)c1C#Cc1ccc(N)nc1 [Example E-28]	65.6
CCc1ncnc(-c2ccc(C(=O)N3CCC(N(C)C)C3)c(F)c2)c1C#Cc1ccc(N)nc1 [Example D-215]	227
CCc1ncnc(-c2ccc(C(=O)N3CCCO3)c(F)c2)c1C#Cc1ccc(N)nc1 [Example D-218]	80
CCc1ncnc(-c2ccc(C(=O)N3CCN(C4CCS(=O)(=O)C4)CC3)c(Cl)c2)c1C#Cc1ccc(N)nc1 [Example D-32]	121
CCc1ncnc(-c2ccc(C(=O)NC3CCN(C)C3)c(F)c2)c1C#Cc1ccc(N)nc1 [Example D-199]	347
CCc1ncnc(-c2ccc(C(=O)N3CCN(C(C)=O)CC3)c(Cl)c2)c1C#Cc1ccc(N)nc1 [Example D-46]	97
Cc1ncnc(-c2ccc(F)c(C(=O)N3CCCCC3)c2)c1C#Cc1ccc(N)nc1 [Example C-41]	539
CCc1ncnc(-c2ccc(C(=O)N3CC(O)CO3)c(OC)c2)c1C#Cc1ccc(N)nc1 (stereo not shown) [Example E-49]	74.5
CCc1ncnc(-c2ccc(C(=O)N3CCN(CCN(C)C)CC3)c(F)c2)c1C#Cc1ccc(N)nc1 [Example D-99]	452
CCc1ncnc(-c2ccc(C(=O)N(C)O)c(Cl)c2)c1C#Cc1ccc(N)nc1 [Example D-153]	67
CCc1ncnc(-c2cc(F)c(C(=O)N3CCn4c(C)cnc4C3)c(F)c2)c1C#Cc1ccc(N)nc1 [Example E-149]	85.8
CCc1ncnc(-c2ccc(C(=O)N3CCC(N4CCN(C)CC4)CC3)c(Cl)c2)c1C#Cc1ccc(N)nc1 [Example E-70]	137
CCNc1ccc(C#Cc2c(CC)ncnc2-c2ccc(C(=O)N3CC4(CN(C(=O)OC(C)(C)C)C4)C3)c(F)c2)cn1 [Example E-267]	421
CCc1ncnc(-c2cc(F)c(C(=O)N3CC[C@@H](N(C)C)C3)c(F)c2)c1C#Cc1ccc(NC)nc1 [Example E-209]	546
CCc1ncnc(-c2ccc(C(=O)N3CCC(C4CCN(C)CC4)CC3)c(Cl)c2)c1C#Cc1ccc(N)nc1 [Example E-21]	374
CCc1ncnc(-c2cc(F)c(C(=O)N3CCn4cnnc4C3)c(F)c2)c1C#Cc1ccc(N)nc1 [Example E-148]	70.6
CCc1ncnc(-c2ccc(C(=O)N3CCC(C(C)(C)O)CC3)c(C)c2)c1C#Cc1ccc(N)nc1 [Example E-87]	78.8
CCc1ncnc(-c2ccc(C(=O)N3CCN(c4ccccn4)CC3)c(Cl)c2)c1C#Cc1ccc(N)nc1 [Example D-37]	118
CCc1ncnc(-c2cc(Cl)c(C(=O)N3CCC(C(C)(C)O)CC3)c(Cl)c2)c1C#Cc1ccc(N)nc1 [Example E-201]	98.1
CCc1ncnc(-c2ccc(C(=O)NCC3(C)COC3)c(F)c2)c1C#Cc1ccc(N)nc1 [Example D-214]	72
CCc1ncnc(-c2ccc(C(=O)N3CCN(c4ccncc4)CC3)c(Cl)c2)c1C#Cc1ccc(N)nc1 [Example D-155]	209
CCc1ncnc(-c2ccc(C(=O)N3CCN(C)C(C)(C)C3)c(F)c2)c1C#Cc1ccc(N)nc1 [Example D-127]	344
CCc1ncnc(-c2ccc(C(=O)N3CCN(CC4CCCN(C)C4)CC3)c(F)c2)c1C#Cc1ccc(N)nc1 [Example D-114]	188
